Earlier results as cited in patent US20210000933A1, “TUMOR VACCINE” (CELL-MEDICINE, INC., priority 2019, published 2021).
Read-outs that look alike come from different tables or passages of the source.

Key:
[1] = test system: newly diagnosed glioblastoma; settings: bevacizumab used together with the standard therapy
[2] = 22 brain tumor cases, PDT then standard therapy
[3] = newly diagnosed glioblastoma cases (13 cases)

Compound | Side reactions (brain tumor; 22 brain tumor cases) | 6-month progression-free survival rate (brain tumor; [2]) [%] | 12-month postoperative overall survival rate (brain tumor; [2]) [%] | mOS (brain tumor; glioblastoma cases) [months] | mPFS (brain tumor; glioblastoma cases) [months] | 6-month progression-free survival rate (brain tumor; [3]) [%] | 12-month postoperative overall survival rate (brain tumor; [3]) [%] | mOS [1] [months] | mPFS [1] [months]
C=Cc1c(C)c2cc3nc(c(CC(=O)N[C@@H](CC(=O)O)C(=O)O)c4[nH]c(cc5nc(cc1[nH]2)C(C)=C5CC)c(C)c4C(=O)O)[C@@H](CCC(=O)O)[C@@H]3C [talaporphin sodium, talaporfin sodium] | observed for only four cases, and all of them were mild | 91 | 95.5 | 24.8 | 12.0 | 100 | 100 | – | –
bevacizumab: antibody drug having a tumor neovascularization inhibitory effect | – | – | – | – | – | – | – | 15.7 to 16.8 | 10.6 to 10.7
